Like-named read-outs stand apart in the source and are kept apart here.
Tested on: rabbit aortic smooth muscle cells
Experiment: aortic explant assay of smooth muscle cell migration induced by platelet-derived growth factor
Type: cell-based
Details: Oryctolagus cuniculus, read-out: % inhibition of SMC migration from explants
Experimental: In this method uniform pieces of intimal/medial tissue from rabbit aorta were cultured in individual wells of a well plate. Migration was induced by addition of platelet-derived growth factor to the culture. Following a lag phase of several days the smooth muscle cells migrated from the explanted tissue and proliferated.
The distance covered by the outgrowing smooth muscle cells was measured.
This assay was carried out with varying concentrations of test compound added to the culture. The compounds thus tested were the maleate salts of the racemic mixture of R(+) and S(-) amlodipine, the maleate salts of R(+) and S(-) amlodipine separately and the known calcium channel-blocking agents nitrendipine and verapamil.
The results obtained are shown in Table 1, in which the percentage inhibition of smooth muscle cell migration for concentrations of test compound of 1 nanomole and 0.1 nanomole are recorded.

[1] = 0.1 nM test compound, rabbit aortic explants, PDGF-induced migration
[2] = 1 nM test compound, rabbit aortic explants, PDGF-induced migration

SMILES	inhibition at 0.0001 µM [1]	inhibition at 0.001 µM [2]	inhibition at 0.0001 µM	inhibition at 0.001 µM
CCOC(=O)C1=C(COCCN)NC(C)=C(C(=O)OC)[C@H]1c1ccccc1Cl [Amlodipine R (+), R(+) isomer of 3-ethyl-5-methyl-2-(2-aminoethoxy-methyl)-4-(2-chlorophenyl)-1,4-dihydro-6-methylpyridine-3,5-dicarboxylate]	36%	39%		
CCOC(=O)C1=C(COCCN)NC(C)=C(C(=O)OC)C1c1ccccc1Cl (racemic) [Amlodipine (racemate), 3-ethyl-5-methyl-2-(2-aminoethoxy-methyl)-4-(2-chlorophenyl)-1,4-dihydro-6-methylpyridine-3,5-dicarboxylate]	39%	33%		
CCOC(=O)C1=C(C)NC(C)=C(C(=O)OC)C1c1cccc([N+](=O)[O-])c1 (stereo not shown) [Nitrendipine, nitrendipine]	14%	28%		
COc1ccc(CCN(C)CCCC(C#N)(c2ccc(OC)c(OC)c2)C(C)C)cc1OC (stereo not shown) [Verapamil, verapamil]			13%	22%
CCOC(=O)C1=C(COCCN)NC(C)=C(C(=O)OC)[C@@H]1c1ccccc1Cl [Amlodipine S (-)]	21%	30%		

Reference: patent US6080761A, “Inhibition of smooth muscle cell migration by (R)-amlodipine” (Pfizer Inc., priority 1993, dated 2000)
